# Test results from patent US12286657B2, “Methods and compositions” (United Kingdom Research and Innovation, priority 2018, dated 2025).
# Key:
# E. coli = assay: LC-MS based amino acid uptake assay (intracellular concentration of DAP derivatives); conditions: addition of 1 mM 6 to cell media
# [1] = storage and handling of DAP amino acid 6-TFA; type: physicochemical
# Description: Storage: The dry sample of DAP amino acid 6-TFA was stored in air-tight dark glass vials in a cold, dry and dark environment and was stable for over 3 years without decomposition.
# It is noteworthy that the vial containing 6-TFA taken out from the fridge or freezer was always allowed to warm to r.t. prior to opening and handling.
# [2] = tested on: TEDAP (Vlm TE, serine 2463 replaced by DAP); assay: depsipeptidyl-TE complex formation with TEDAP (LC-ESI-MS); type: biochemical, Streptomyces tsusimaensis; conditions: incubation with TEDAP
# [3] = free amino acid (lysine sidechain; beta amino group of DAP); cited from earlier work
# [4] = tested on: PCC1RS/tRNACUA and PCC2RS/tRNACUA pairs; assay: amber codon suppression in reporter genes with photocaged-cysteine synthetase pairs; type: cell-based; conditions: cells provided with 3 or 4 and the relevant pair
# Description: Compounds 3 and 4 contain a conservative SH to NH2 substitution relative to photocaged cysteine derivatives that we have previously incorporated into proteins using the PCC1RS/tRNACUA and PCC2RS/tRNACUA pairs, respectively^32. (These pairs were derived from the pyrrolysyl-tRNA synthetase/tRNACUA pair).
# TEDAP = assay: LC-ESI-MS analysis of Vlm TE reaction products, TEDAP; type: biochemical, Streptomyces tsusimaensis; conditions: incubation with TEDAP
# Protocol: (§1) Extracted ion chromatograms (EICs) from HR-LC-ESI-MS of reactions of tetradepsipeptidyl-SNAC 7 (1.7 mM) and Vlm TE (6.5 μM). a, TEwt produces valinomycin as its major product. […] See Supplementary Table 2 for accurate mass analysis and deviations from calculated m/z values of each compound.
# (§2) Purified TEwt or TEDAP at 0.2 mg mL-1 (6.5 μM) was incubated with tetradepsipeptidyl-SNAC 7 (1.7 mM), or a mix of tetradepsipeptidyl-SNAC 7 and deoxytetradepsipeptidyl-SNAC 8 (1.7 mM each) in buffer T. Samples were incubated at room temperature for 24 hours, and then quenched with one volume of 0.1% formic acid in acetonitrile. Next, samples were centrifuged at 20,000 g, flash frozen in liquid nitrogen and stored at −80° C. before HPLC analysis. For HPLC-MS analysis, frozen samples were thawed at room temperature, vortexed and clarified by centrifugation at 20,000 g before injection. HR-LC-ESI-MS was performed at the Mass Spectroscopy Facility (Department of Chemistry, McGill University) with an Agilent XDB-C8 (5 μm, 4.6×150 mm) column in a Dionex Ultimate 3000 UHPLC system coupled to a Bruker maXis impact QTOF mass spectrometer in positive ESI mode. […] Data was analyzed using the Bruker DataAnalysis software and the SmartFormula tool (Bruker).
# Vlm TEwt = assay: LC-ESI-MS analysis of Vlm TE reaction products, TEwt; type: biochemical, Streptomyces tsusimaensis; conditions: incubation with Vlm TEwt
# Protocol: as §1, §2
# HA-tagged Ub = assay: ubiquitination test with UBE2L3 variants; type: biochemical; conditions: for E2-Ub complex formation: 0.2 μM E1, HA-tagged Ub, E2 loading buffer; for redox sensitivity of complex with Ub: presence of ß-mercaptoethanol
# Protocol: Ubiquitination test with UBE2L3(C86DAP). […] Ub-UBE2L3: Thioester-linked (UBE2L3[wt]) or isopeptidelinked (UBE2L3[C86DAP]) E2-Ub complex.
# In order to test whether UBE2L3(C86DAP5), which had been irradiated with UV light and incubated overnight at 37° C., could be charged with Ub, a reaction containing 0.2 μM E1 and HA-tagged Ub in E2 loading buffer was set up. Each reaction (positive control [wt], negative control [C86A] and [C86DAP]) was performed with and without Ub (see FIG. 23).
# Ub-tev-His6 = assay: reactions of TEV with Ubtev (SDS-PAGE, western blot); type: biochemical; conditions: SDS-PAGE and western blot
# Description: The use of TEV(wt) results in cleavage of the TEV cleavage sequence. The use of TEV(C151A) results in minimal cleavage. The presence of DAP in the active site of TEV results in the presence of a new band in the coomassie gel, representing the isopeptide-linked TEV(C151DAP)-Ub complex (left). αUb and αStrep western blots of the reactions confirm the identity of the complex (TEV constructs contain a Strep tag). b, Tandem mass spectrometry of isopeptide-linked TEV(C151DAP)-Ub complex. Tandem mass spectrometry unambiguously identifies the DAP modification at the desired site and the expected tev-Gly-Gly modification on the residue, consistent with Ub trapping on DAP.
# Tryptic MS/MS of the slower mobility band identifies the isopeptide linkage between DAP and Ub, confirming formation of the TEVDAP-Ub (FIG. 4b). Therefore, the substitution of the catalytic cysteine in TEV with DAP enables the creation of a protease that goes through the first step of the protease cycle: nucleophilic attack on the substrate carbonyl to form the first tetrahedral intermediate. This intermediate collapses, releasing the C-terminal fragment of the substrate and leaving the N-terminal fragment of the substrate covalently attached to the protease, through a stable amide bond that is not subject to hydrolysis. […]
molecule,measurement,setting,value
CC(SCCOC(=O)NC[C@H](N)C(=O)O)c1cc2c(cc1[N+](=O)[O-])OCO2 (mixture of isomers) [Compound 6],intracellular concentration,E. coli,approximately 2 mM
same,stable without decomposition on storage,"[1]; dry sample, air-tight dark glass vials, cold, dry and dark environment",over 3 years
same,light and moisture sensitivity on handling,[1]; exposure to moist air,light sensitive and slightly hygroscopic
"CC(=O)NCCSC(=O)[C@@H](NC(=O)[C@@H](C)OC(=O)[C@@H](NC(=O)CC(C)C)C(C)C)C(C)C (single isomer, unassigned) [deoxy-tetradepsipeptidyl-SNAC 8]",acyl-TEDAP conjugate formation yield,[2],~70%
"NC[C@H](N)C(=O)O (stereo in doubt) [Compound 1, 2,3-diaminopropionic acid]",pKa of the conjugate acid of the sidechain amine,[3],9.4
N[C@@H](CNCc1ccccc1[N+](=O)[O-])C(=O)O [Compound 3],suppression of amber codons in reporter genes,[4],did not function to suppress amber codons
CC(NC[C@H](N)C(=O)O)c1cc2c(cc1[N+](=O)[O-])OCO2 (some centres unmarked) [Compound 4],suppression of amber codons in reporter genes,[4],did not function to suppress amber codons
"CC(=O)NCCSC(=O)C(NC(=O)C(C)OC(=O)C(NC(=O)C(O)C(C)C)C(C)C)C(C)C [tetradepsipeptidyl-SNAC 7, HO-D-Hiv-D-Val-L-Lac-L-Val-SNAC]",valinomycin synthesis,TEDAP,did not observe valinomycin synthesis
same,valinomycin production,Vlm TEwt,led to production of valinomycin
same,acyl-TEDAP conjugate formation yield,[2],> 60%
"CC(C)[C@@H]1NC(=O)[C@H](C)OC(=O)[C@@H](C(C)C)NC(=O)[C@@H](C(C)C)OC(=O)[C@H](C(C)C)NC(=O)[C@H](C)OC(=O)[C@@H](C(C)C)NC(=O)[C@@H](C(C)C)OC(=O)[C@H](C(C)C)NC(=O)[C@H](C)OC(=O)[C@@H](C(C)C)NC(=O)[C@@H](C(C)C)OC1=O [valinomycin, reference compound]",acyl-TEDAP conjugate formation yield,[2],65-100%
UBE2L3(C86DAP): UBE2L3 with DAP at position 86,E2-Ub complex formation,HA-tagged Ub,higher molecular weight band could also be detected
same,redox sensitivity of complex with Ub,HA-tagged Ub,redox insensitive
"UBE2L3(wt): wild type UBE2L3, positive control",E2-Ub complex formation,HA-tagged Ub,higher molecular weight band could be observed
same,redox sensitivity of complex with Ub,HA-tagged Ub,redox sensitive
TEVDAP: TEV protease with amino acid 1 (DAP) at position 151 (protein) GESLFKGPRDYNPISSTICHLTNESDGHTTSLYGIGFGPFIITNKHLFRRNNGTLLVQSLHGVFKVKNTTTLQQHLIDGRDMIIIRMPKDFPPFPQKLKFREPQREERICLVTTNFQTKSMSSMVSDTSCTFPSSDGIFWKHWIQTKDGQCGSPLVSTRDGFIVGIHSASNFTNTNNYFTSVPKNFMELLTNQEAQQWVSGWRLNADSVLWGGHKVFMSKPEEPFQPVKEATQLMN,outcome of incubation with Ub-tev-His6,Ub-tev-His6,formation of a new band
wild-type TEV: wild-type tobacco etch virus protease (protein) GESLFKGPRDYNPISSTICHLTNESDGHTTSLYGIGFGPFIITNKHLFRRNNGTLLVQSLHGVFKVKNTTTLQQHLIDGRDMIIIRMPKDFPPFPQKLKFREPQREERICLVTTNFQTKSMSSMVSDTSCTFPSSDGIFWKHWIQTKDGQCGSPLVSTRDGFIVGIHSASNFTNTNNYFTSVPKNFMELLTNQEAQQWVSGWRLNADSVLWGGHKVFMSKPEEPFQPVKEATQLMN,outcome of incubation with Ub-tev-His6,Ub-tev-His6,cleaves Ub-tev-His6
